According to patent US20190203240A1, “METHODS FOR THE PRODUCTION OF RHAMNOSYLATED FLAVONOIDS” (Universitaet Hamburg, priority 2016, published 2019):
Values joined by “and” are separate entries in the source; they are usually repeats but may differ in a detail not shown here. Identical values can stand only once.

Columns and labels:
[1] = system: fibronectin; assay: Stimulation of fibronectin synthesis in NHDF (ELISA); type: cell-based, human; conditions: 100 μM
Experimental: (§1) Tests were performed with normal human dermal fibroblast cultures at the 8th passage. Cells were grown in DMEM supplemented with glutamine at 2 mM, penicillin at 50 U/mL and streptomycin (50 μg/mL) and 10% of fetal calf serum (FCS) at 37° C. in a 5% CO2 atmosphere.
Fibroblasts were cultured for 24 hours before the cells were incubated with the test compounds for further 72 hours. After the incubation the culture supernatants were collected in order to measure the released quantities of procollagen I, VEGF, and fibronectin by means of ELISA. Reference test compounds were vitamin C (procollagen I), PMA (VEGF), and TGF-β (fibronectin).

[2] = system: IL-8; assay: Anti-inflammatory potential: secreted IL-8 in stimulated NHEK (ELISA); type: cell-based, human; conditions: 100 μM; for Cytokine [pg/mL] IL-8: single values
Experimental: NHEK were pre-incubated for 24 h with the test compounds. The medium was replaced with the NHEK culture medium containing the inflammatory inducers (PMA or Poly I:C) and incubated for another 24 hours. Positive and negative controls ran in parallel. At the endpoint the culture supernatants were quantified of secreted IL-8, PGE2 and TNF-α, by means of ELISA.

[3] = system: matrix metallopeptidase 1 (MMP-1); assay: MMP-1 release in UVA-irradiated NHDF (ELISA); type: cell-based, human
Experimental: as §1
Human fibroblasts were cultured for 24 hours before the cells were pre-incubated with the test or reference compounds (dexamethasone) for another 24 hours. The medium was replaced by the irradiation medium (EBSS, CaCl2) 0.264 g/L, MgClSO4 0.2 g/L) containing the test compounds) and cells were irradiated with UVA (15 J/cm^2). The irradiation medium was replaced by culture medium including again the test compounds incubated for 48 hours. After incubation the quantity of matrix metallopeptidase 1 (MMP-1) in the culture supernatant was measured using an ELISA kit.

[4] = system: normal human epidermal keratinocytes (NHEK); assay: Cytotoxicity on NHEK monolayer (MTT reduction assay and morphological observation); type: cell-based; conditions: MTT; for Viability (%): single values, listed as Nar-5-Rha
Experimental: To determine the cytotoxicity of flavonoid-5-O-α-L-rhamnosides tests were performed versus their aglycon derivatives in cell monolayer cultures. For this purpose concentrations ranging from 1 μM to 250 μM were chosen. The viability of normal human epidermal keratinocytes (NHEK) was twice evaluated by a MTT reduction assay and morphological observation with a microscope. NHEK were grown at 37° C. and 5% CO2 aeration in Keratinocyte-SFM medium supplemented with epidermal growth factor (EGF) at 0.25 ng/mL, pituitary extract (PE) at 25 μg/mL and gentamycin (25 μg/mL) for 24 h and were used at the 3rd passage. For cytotoxicity testing, pre-incubated NHEK were given fresh culture medium containing a specific concentration of test compound and incubated for 24 h. After a medium change at same test concentration cells were incubated a further 24 h until viability was determined. Test results are given in Table B2 and illustrated in FIG. 10.

[5] = system: NF-κB; assay: NF-κB activity in NIH3T3-KBF-Luc cells stimulated with TNFα (luciferase); type: cell-based; conditions: +30 ng/ml TNFα
Experimental: NIH3T3-KBF-Luc cells were stably transfected with the KBF-Luc plasmid (Sancho (2003) Mol Pharmacol 63:429-438), which contains three copies of NF-κB binding site (from major histocompatibility complex promoter), fused to a minimal simian virus 40 promoter driving the luciferase gene. Cells (1×10^4 for NIH3T3-KBF-Luc) were seeded the day before the assay on 96-well plate. Then the cells were treated with the test substances for 15 min and then stimulated with 30 ng/ml of TNFα. After 6 h, the cells were washed twice with PBS and lysed in 50 μl lysis buffer containing 25 mM Tris-phosphate (pH 7.8), 8 mM MgCl2, 1 mM DTT, 1% Triton X-100, and 7% glycerol during 15 min at RT in a horizontal shaker. Luciferase activity was measured using a GloMax 96 microplate luminometer (Promega) following the instructions of the luciferase assay kit (Promega, Madison, Wis., USA). […] The experiments for each concentration of the test items were done in triplicate wells.

[6] = NHDF irradiated 15 J/cm^2 UVA, 100 μM

SMILES: C[C@@H]1O[C@@H](Oc2cc(O)cc3c2C(=O)CC(c2ccc(O)cc2)O3)[C@H](O)[C@H](O)[C@H]1O (mixture of isomers) [NR1, Naringenin-5-O-α-L-rhamnoside]
- fibronectin synthesis increase [1]: 20%
- Fibronectin % Control ([1]; 72 h incubation): 120%
- Fibronectin % Stimulation ([1]; 72 h incubation): 20%
- Fibronectin (ng/ml), single replicates ([1]; 72 h incubation): 6833 ng/mL and 7820 ng/mL
- Fibronectin Mean ([1]; 72 h incubation): 7326 ng/mL
- Cytokine [pg/mL] IL-8 Mean ([2]; PMA stimulation): 2564 pg/mL
- IL-8 % stim. control ([2]; PMA stimulation): 88%
- Cytokine [pg/mL] IL-8 ([2]; PMA stimulation): 2572 pg/mL and 2555 pg/mL
- Cytokine [pg/mL] IL-8 Mean ([2]; poly(I:C) stimulation): 3154 pg/mL
- IL-8 % stim. control ([2]; poly(I:C) stimulation): 86%
- Cytokine [pg/mL] IL-8 ([2]; poly(I:C) stimulation): 3055 pg/mL and 3253 pg/mL
- MMP-1 % Irradiated control [3, 6]: 338%
- MMP-1 % Protection [3, 6]: −372%
- MMP-1 (ng/ml), single replicates [3, 6]: 211.7 ng/mL and 268.8 ng/mL
- Mean MMP-1 [3, 6]: 240.3 ng/mL
- upregulation of MMP-1 biosynthesis ([3]; NHDF, UV-irradiated conditions): ~4 fold
- Viability (%) Mean ([4]; 1 μM): 101%
- Viability (%) ([4]; 1 μM): 91% and 111%
- Viability (%) Mean ([4]; 2.5 μM): 93%
- Viability (%) ([4]; 2.5 μM): 92% and 93%
- Viability (%) Mean ([4]; 5 μM): 86%
- Viability (%) ([4]; 5 μM): 85% and 88%
- Viability (%) Mean ([4]; 10 μM): 97%
- Viability (%) ([4]; 10 μM): 94% and 100%
- Viability (%) Mean ([4]; 25 μM): 95%
- Viability (%) ([4]; 25 μM): 92% and 98%
- Viability (%) Mean ([4]; 50 μM): 84%
- Viability (%) ([4]; 50 μM): 78% and 91%
- Viability (%) Mean ([4]; 100 μM): 86%
- Viability (%) ([4]; 100 μM): 82% and 90%
- Viability (%) Mean ([4]; 250 μM): 83%
- Viability (%) ([4]; 250 μM): 79% and 87%
- % Activation (NF-κB; TNFα = 100%) ([5]; 10 μM): 114.0%
- RLU 1 ([5]; 10 μM): 134540 RLU
- RLU 2 ([5]; 10 μM): 126580 RLU
- RLU 3 ([5]; 10 μM): 130240 RLU
- RLU MEAN ([5]; 10 μM): 130453 RLU
- RLU specific ([5]; 10 μM): 93190 RLU
- % Activation (NF-κB; TNFα = 100%) ([5]; 25 μM): 136.5%
- RLU 1 ([5]; 25 μM): 151080 RLU
- RLU 2 ([5]; 25 μM): 151840 RLU
- RLU 3 ([5]; 25 μM): 143870 RLU
- RLU MEAN ([5]; 25 μM): 148930 RLU
- RLU specific ([5]; 25 μM): 111667 RLU
